Test results as given in patent EP4796538A1, “NOVEL QUINOXALINE COMPOUNDS, MANUFACTURING METHOD THEREOF, AND USES THEREOF” (Gachon University of Industry-Academic Cooperation …, priority 2023, dated 2025).
Where two headings read alike, the source gives them in different places.

How the values were obtained:
RET-CCDC6 (PTC1) = target: T1, RET-CCDC6 (PTC1) (Homo sapiens, UniProt P07949); assay: Kinase panel inhibition, radiolabeled [γ-33P] ATP (Reaction Biology Corp); type: biochemical; details: ATP 1 µM; for remaining activity at 10 µM: compound at 10 uM; for remaining activity at 30 µM: compound at 30uM
T1 construct: purchased Reaction Biology Corp
Protocol: (§1) Using radiolabeled ATP ([γ-33P] ATP), the degree to which the substrate was replaced by a 33P-phosphorylated substrate was measured, and changes in kinase activity were determined from the measurement of the radiolabeled phosphorylated substrate.

RET (G810S/M918T) = target: T2, RET (G810S/M918T) (Homo sapiens, UniProt P07949, G810S/M918T); assay: as above; type: biochemical; details: ATP 1 µM; for remaining activity at 10 µM: compound at 10 uM; for remaining activity at 30 µM: compound at 30uM
T2 construct: purchased Reaction Biology Corp
Protocol: as §1

A-549 = assay: Cell proliferation inhibition, Cell Counting Kit-8, non-small cell lung cancer cell line; type: cell-based; details: A-549 cell line; 72 hours incubation; test concentration not given
[1] = Data 1, read-out: % Enzyme Activity (relative to DMSO controls) RET-CCDC6 (PTC1) Data 1
[2] = Data 2, read-out: % Enzyme Activity (relative to DMSO controls) RET-CCDC6 (PTC1) Data 2
[3] = Data 1, read-out: % Enzyme Activity (relative to DMSO controls) RET (G810S/M918T) Data 1
[4] = Data 2, read-out: % Enzyme Activity (relative to DMSO controls) RET (G810S/M918T) Data 2

T2 sequence (P07949 29-1114 G810S/M918T): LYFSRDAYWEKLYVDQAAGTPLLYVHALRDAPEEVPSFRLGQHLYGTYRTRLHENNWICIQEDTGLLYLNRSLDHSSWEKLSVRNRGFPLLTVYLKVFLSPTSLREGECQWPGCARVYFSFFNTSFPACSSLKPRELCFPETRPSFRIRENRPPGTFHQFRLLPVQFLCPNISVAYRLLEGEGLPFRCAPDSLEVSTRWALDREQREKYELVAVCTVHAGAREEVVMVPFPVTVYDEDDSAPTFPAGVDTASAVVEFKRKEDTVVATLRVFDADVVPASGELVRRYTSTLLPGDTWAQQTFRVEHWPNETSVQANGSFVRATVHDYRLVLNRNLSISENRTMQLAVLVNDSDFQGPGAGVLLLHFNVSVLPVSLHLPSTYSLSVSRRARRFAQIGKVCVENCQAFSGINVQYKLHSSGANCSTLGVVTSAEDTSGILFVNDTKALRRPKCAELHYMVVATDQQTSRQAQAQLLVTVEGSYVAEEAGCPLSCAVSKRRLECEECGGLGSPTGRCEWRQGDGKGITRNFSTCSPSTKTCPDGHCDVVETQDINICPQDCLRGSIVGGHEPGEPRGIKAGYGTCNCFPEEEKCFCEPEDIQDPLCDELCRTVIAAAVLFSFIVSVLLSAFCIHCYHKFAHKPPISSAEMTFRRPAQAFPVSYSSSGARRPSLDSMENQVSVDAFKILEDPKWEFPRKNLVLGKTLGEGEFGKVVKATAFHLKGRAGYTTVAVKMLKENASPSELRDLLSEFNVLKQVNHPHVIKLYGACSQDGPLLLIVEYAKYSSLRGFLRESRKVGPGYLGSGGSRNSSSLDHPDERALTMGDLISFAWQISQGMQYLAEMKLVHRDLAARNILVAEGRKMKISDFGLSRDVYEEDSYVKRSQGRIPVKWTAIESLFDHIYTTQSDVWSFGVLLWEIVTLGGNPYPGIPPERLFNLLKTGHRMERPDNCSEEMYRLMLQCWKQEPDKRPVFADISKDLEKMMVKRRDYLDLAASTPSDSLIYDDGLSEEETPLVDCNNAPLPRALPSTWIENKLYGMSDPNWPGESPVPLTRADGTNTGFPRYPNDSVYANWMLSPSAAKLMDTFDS
T1 sequence (P07949 whole entry, looked up): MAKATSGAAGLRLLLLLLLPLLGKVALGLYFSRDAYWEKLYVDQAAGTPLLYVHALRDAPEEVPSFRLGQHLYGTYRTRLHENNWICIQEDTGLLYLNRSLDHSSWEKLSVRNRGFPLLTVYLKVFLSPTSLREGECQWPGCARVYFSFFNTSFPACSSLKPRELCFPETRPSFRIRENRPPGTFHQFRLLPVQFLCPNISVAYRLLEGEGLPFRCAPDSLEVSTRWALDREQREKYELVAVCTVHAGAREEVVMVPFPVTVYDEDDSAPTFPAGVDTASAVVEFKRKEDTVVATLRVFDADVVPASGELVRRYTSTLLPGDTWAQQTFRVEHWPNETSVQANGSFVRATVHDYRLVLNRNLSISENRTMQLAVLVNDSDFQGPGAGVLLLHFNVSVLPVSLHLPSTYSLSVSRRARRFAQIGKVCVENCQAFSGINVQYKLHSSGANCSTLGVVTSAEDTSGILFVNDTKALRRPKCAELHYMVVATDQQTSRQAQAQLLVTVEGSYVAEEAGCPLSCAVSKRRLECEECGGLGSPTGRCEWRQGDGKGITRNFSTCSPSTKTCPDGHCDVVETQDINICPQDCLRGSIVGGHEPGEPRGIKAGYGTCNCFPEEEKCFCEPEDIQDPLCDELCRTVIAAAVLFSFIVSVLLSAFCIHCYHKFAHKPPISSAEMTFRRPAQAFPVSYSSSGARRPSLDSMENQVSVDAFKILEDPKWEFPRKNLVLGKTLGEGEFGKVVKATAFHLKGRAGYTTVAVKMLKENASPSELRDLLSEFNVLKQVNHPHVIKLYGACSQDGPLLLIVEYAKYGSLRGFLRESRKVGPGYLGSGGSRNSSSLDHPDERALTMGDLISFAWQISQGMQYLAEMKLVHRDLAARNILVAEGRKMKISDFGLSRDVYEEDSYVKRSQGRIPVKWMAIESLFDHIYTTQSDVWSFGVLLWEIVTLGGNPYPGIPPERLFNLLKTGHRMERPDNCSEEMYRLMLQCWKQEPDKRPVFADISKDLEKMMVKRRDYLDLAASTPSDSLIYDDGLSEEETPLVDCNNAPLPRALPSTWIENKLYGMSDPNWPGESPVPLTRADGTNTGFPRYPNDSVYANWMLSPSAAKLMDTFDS

| SMILES | remaining activity at 10 µM (RET-CCDC6 (PTC1); [1]) [%] | remaining activity at 10 µM (RET-CCDC6 (PTC1); [2]) [%] | remaining activity at 10 µM (RET (G810S/M918T); [3]) [%] | remaining activity at 10 µM (RET (G810S/M918T); [4]) [%] | Cell Proliferation (% of control) (A-549) [%] | remaining activity at 30 µM (RET-CCDC6 (PTC1); [1]) [%] | remaining activity at 30 µM (RET-CCDC6 (PTC1); [2]) [%] | remaining activity at 30 µM (RET (G810S/M918T); [3]) [%] | remaining activity at 30 µM (RET (G810S/M918T); [4]) [%] |
| --- | --- | --- | --- | --- | --- | --- | --- | --- | --- |
| CCCNc1cc(-c2ccc(N3CC(Oc4cccc(F)c4)C3)nc2)c2nccnc2c1 [Example 4, 8-(6-(3-(3-fluorophenoxy)azetidin-1-yl)pyridin-3-yl)-N-propylquinoxalin-6-amine] | 1.11 | 1.31 | -0.23 | 0.04 | 43.59 | – | – | – | – |
| CC(C)Nc1cc(-c2ccc(N3CC(Oc4cccc(F)c4)C3)nc2)c2nccnc2c1 [Example 5, 8-(6-(3-(3-fluorophenoxy)azetidin-1-yl)pyridin-3-yl)-N-isopropylquinoxalin-6-amine] | 1.34 | 0.72 | 5.96 | 6.14 | 36.07 | – | – | – | – |
| CCCCNc1cc(-c2ccc(N3CC(Oc4cccc(F)c4)C3)nc2)c2nccnc2c1 [Example 6, N-butyl-8-(6-(3-(3-fluorophenoxy)azetidin-1-yl)pyridin-3-yl)quinoxalin-6-amine] | 1.05 | 1.32 | 2.18 | 2.37 | 68.59 | – | – | – | – |
| CC(C)CNc1cc(-c2ccc(N3CC(Oc4cccc(F)c4)C3)nc2)c2nccnc2c1 [Example 7, 8-(6-(3-(3-fluorophenoxy)azetidin-1-yl)pyridin-3-yl)-N-isobutylquinoxalin-6-amine] | 0.85 | 1.07 | 4.28 | 4.26 | 53.57 | – | – | – | – |
| O=C(Nc1cc(-c2ccc(N3CC(Oc4cccc(F)c4)C3)nc2)c2nccnc2c1)c1ccccn1 [Example 9, N-(8-(6-(3-(3-fluorophenoxy)azetidin-1-yl)pyridin-3-yl)quinoxalin-6-yl)picolinamide] | 2.81 | 3.74 | 49.5 | 50 | 18.67 | – | – | – | – |
| CCCNc1cc(-c2ccc(N3CC[C@H](NC(=O)c4ccccc4F)C3)nc2)c2nccnc2c1 [Example 13, (S)-2-fluoro-N-(1-(5-(7-(propylamino)quinoxalin-5-yl)pyridin-2-yl)pyrrolidin-3-yl)benzamide] | 0.91 | 1.28 | -0.06 | -0.31 | 39.32 | – | – | – | – |
| CC(C)Nc1cc(-c2ccc(N3CC[C@H](NC(=O)c4ccccc4F)C3)nc2)c2nccnc2c1 [Example 14, (S)-2-fluoro-N-(1-(5-(7-(isopropylamino)quinoxalin-5-yl)pyridin-2-yl)pyrrolidin-3-yl)benzamide] | 1.04 | 0.72 | 5.08 | 4.68 | 47.83 | – | – | – | – |
| CCCCNc1cc(-c2ccc(N3CC[C@H](NC(=O)c4ccccc4F)C3)nc2)c2nccnc2c1 [Example 15, (S)-N-(1-(5-(7-(butylamino)quinoxalin-5-yl)pyridin-2-yl)pyrrolidin-3-yl)-2-fluorobenzamide] | 1.08 | 1.1 | -0.06 | -0.2 | 51.55 | – | – | – | – |
| CC(C)CNc1cc(-c2ccc(N3CC[C@H](NC(=O)c4ccccc4F)C3)nc2)c2nccnc2c1 [Example 16, (S)-2-fluoro-N-(1-(5-(7-(isobutylamino)quinoxalin-5-yl)pyridin-2-yl)pyrrolidin-3-yl)benzamide] | 1.21 | 1.51 | 3.39 | 3.22 | 65.29 | – | – | – | – |
| O=C(Nc1cc(-c2ccc(N3CC[C@H](NC(=O)c4ccccc4F)C3)nc2)c2nccnc2c1)c1ccco1 [Example 17, (S)-N-(8-(6-(3-(2-fluorobenzamido)pyrrolidin-1-yl)pyridin-3-yl)quinoxalin-6-yl)furan-2-carboxamide] | 1.15 | 1.33 | 11.9 | 11.9 | 48.96 | – | – | – | – |
| O=C(Nc1cc(-c2ccc(N3CC[C@H](NC(=O)c4ccccc4F)C3)nc2)c2nccnc2c1)c1ccccn1 [Example 18, (S)-N-(8-(6-(3-(2-fluorobenzamido)pyrrolidin-1-yl)pyridin-3-yl)quinoxalin-6-yl)picolinamide] | 1.9 | 2.31 | 24.7 | 25.5 | 35.32 | – | – | – | – |
| Nc1cc(-c2ccc(N3CCOCC3)nc2)c2nccnc2c1 [Example 19, 8-(6-morpholinopyridin-3-yl)quinoxalin-6-amine] | 5.69 | 6.45 | 27.3 | 26.3 | 71.46 | – | – | – | – |
| CN1CCN(c2ccc(-c3cc(N)cc4nccnc34)cn2)CC1 [Example 20, 8-(6-(4-methylpiperazin-1-yl)pyridin-3-yl)quinoxalin-6-amine] | 12.9 | 15.3 | 48.1 | 45 | 81.61 | – | – | – | – |
| CCN1CCN(c2ccc(-c3cc(N)cc4nccnc34)cn2)CC1 [Example 21, 8-(6-(4-ethylpiperazin-1-yl)pyridin-3-yl)quinoxalin-6-amine] | 26 | 28 | 66.7 | 63.3 | 64.90 | – | – | – | – |
| Nc1cc(-c2ccc(F)nc2)c2nccnc2c1 [Intermediate Compound 4, 8-(6-fluoropyridin-3-yl)quinoxalin-6-amine] | – | – | – | – | – | 20.9 | 19.4 | 53.5 | 54.1 |
| CNc1cc(-c2ccc(F)nc2)c2nccnc2c1 [Intermediate Compound 5, 8-(6-fluoropyridin-3-yl)-N-methylquinoxalin-6-amine] | – | – | – | – | – | 5.67 | 3.67 | 13.3 | 14.4 |
| CCCNc1cc(-c2ccc(F)nc2)c2nccnc2c1 [Intermediate Compound 7] | – | – | – | – | – | – | – | 24 | 22.3 |
| CC(C)Nc1cc(-c2ccc(F)nc2)c2nccnc2c1 [Intermediate Compound 8, 8-(6-fluoropyridin-3-yl)-N-isopropylquin oxalin-6-amine] | – | – | – | – | – | 7.38 | 7.71 | 66.5 | 68.4 |
| CCCCNc1cc(-c2ccc(F)nc2)c2nccnc2c1 [Intermediate Compound 9, N-butyl-8-(6-fluoropyridin-3-yl)quinoxalin-6-amine] | – | – | – | – | – | – | – | 24.8 | 25.3 |
| CC(C)CNc1cc(-c2ccc(F)nc2)c2nccnc2c1 [Intermediate Compound 10, 8-(6-Fluoropyridin-3-yl)-N-isobutylquinoxalin-6-amine] | – | – | – | – | – | – | – | 43.1 | 40.1 |
| O=C(Nc1cc(Br)c2nccnc2c1)c1ccccn1 [Intermediate Compound 12, N-(8-Bromoquinoxalin-6-yl)picolinamide] | – | – | – | – | – | – | – | 100 | 96.4 |
| O=C(Nc1cc(-c2ccc(F)nc2)c2nccnc2c1)c1ccccn1 [Intermediate Compound 14, N-(8-(6-Fluoropyridin-3-yl)quinoxalin-6-yl)picolinamide] | – | – | – | – | – | – | – | 92.5 | 92.5 |
| Nc1cc(-c2cnc(Cl)nc2)c2nccnc2c1 [Intermediate Compound 16, 8-(2-chloropyrimidin-5-yl)quinoxalin-6-amine] | – | – | – | – | – | 13.2 | 13.3 | 40.8 | 39.1 |
| CCCNc1cc(Br)c2nccnc2c1 [Intermediate Compound 19, 8-Bromo-N-propylquinoxalin-6-amine] | – | – | – | – | – | – | – | 27.6 | 28.3 |
| CC(C)Nc1cc(Br)c2nccnc2c1 [Intermediate Compound 20, 8-Bromo-N-isopropylquin oxalin-6-amine] | – | – | – | – | – | 7.86 | 7.51 | 69.1 | 73.1 |
| CCCCNc1cc(Br)c2nccnc2c1 [Intermediate Compound 21, 8-Bromo-N-butylquinoxalin-6-amine] | – | – | – | – | – | – | – | 20.8 | 21.7 |
| CC(C)CNc1cc(Br)c2nccnc2c1 [Intermediate Compound 22, 8-Bromo-N-isobutylquino xalin-6-amine] | – | – | – | – | – | – | – | 49.4 | 48.9 |
